Data: patent US4568545A, “Thrombolytic agent” (Amano Seiyaku Kabushiki Kaisha, priority 1982, dated 1986)

Test system: thrombi formed from blood of a healthy adult
Test: Thrombolytic activity by the Chandler's loop method
Format: biochemical, human
Details: 60 minutes, 37° C.
Method: Determination of the thrombolytic activity by the Chandler's loop method: the test solution and control solution were prepared by dissolving the protease and urokinase (a product by Otsuka Seiyaku Co.), respectively, in a physiological saline solution. […] The reference solution for the blank test was the physiological saline solution.
Formation of thrombi and measurement of the dissolution thereof were performed in the following manner. Thus, 0.8 ml of the above obtained fresh blood admixed with sodium citrate and 0.1 ml of a 3% aqueous solution of calcium chloride as CaCl2 ·2H2 O were introduced into a tube of polyvinyl chloride resin having an inner diameter of 3 mm and a length of 250 mm and the ends of the tube were connected to each other to form a loop which was put coaxially on a turntable inclined at an angle of 60° and rotated at 37° C. for 30 minutes at a velocity of 17 r.p.m. to form thrombi therein. Thereafter, 0.1 ml of one of the protease solutions, the urokinase solution or the reference solution was introduced into the loop which was rotated under the same conditions as above for 60 minutes. The thrombi remaining in the tube were then taken out and, after fixing with a Bouin's reagent, i.e. a solution prepared by adding 25 ml of a commercially available formalin solution and 5 ml of glacial acetic acid to 75 ml of a saturated aqueous solution of picric acid, the weight of the wet thrombi was measured.

Q: Which “% Thrombolysis” value (concentration in blood 50 Iu/ml blood) does the source give for Urokinase here?
A: The value was 8.0%.

Q: And the “% Thrombolysis” value (concentration in blood 100 Iu/ml blood)?
A: The value was 39.8%.

Q: And the “% Thrombolysis” value (concentration in blood 150 Iu/ml blood)?
A: Its value is 49.7%.

Q: And the “% Thrombolysis” value (concentration in blood 200 Iu/ml blood)?
A: Its value is 60.3%.

Q: And the “% Thrombolysis” value (concentration in blood 250 Iu/ml blood)?
A: The value was 66.4%.
